Here are results for twelve compounds from US20260356856A1, “KRAS G12S AND G12C INHIBITORS” (MIRATI THERAPEUTICS, INC., priority 2023, published 2026).

The target of one assay is T1, KRas G12C (Homo sapiens, UniProt P01116, G12C).
T1 construct: Biotinylated KRas (corresponding to amino acids 1-169, produced at Accelegan Inc.); biotin (biotinylated); purchased Accelegan Inc
Description: KRas binding assay, TR-FRET displacement of Cy5 labelled tracer. The conditions noted are these: 60-minute incubation at room temperature, 1% DMSO, pH 7.5. Put shortly:
(§1)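 Biotinylated KRas (aa 1-169) incubated with Cy5-labelled tracer, terbium streptavidin and compound (1% DMSO final) in 50 mM HEPES pH 7.5, 5 mM MgCl2, 0.005% Tween-20, 1 mM DTT. Tracer displacement read by TR-FRET after 60 min at room temperature; POC values fitted to 4-parameter IC50 equation.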
(TR-FRET usually uses a lanthanide donor and a delayed reading to cut background.)

For another assay, the target named is T2, KRas G12S (Homo sapiens, UniProt P01116, G12S).
T2 construct: Biotinylated KRas (corresponding to amino acids 1-169, produced at Accelegan Inc.); biotin (biotinylated); purchased Accelegan Inc
T2 sequence (P01116 1-169 isoform P01116-2 G12S): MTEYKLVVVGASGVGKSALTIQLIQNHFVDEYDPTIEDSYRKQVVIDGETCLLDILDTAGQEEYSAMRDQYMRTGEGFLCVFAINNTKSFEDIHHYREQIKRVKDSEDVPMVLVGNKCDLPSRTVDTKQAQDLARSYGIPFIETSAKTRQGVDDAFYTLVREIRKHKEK
The description is as above. The note with it: 60-minute incubation at room temperature, 1% DMSO, pH 7.5. The method in brief:
as §1

In another assay the target is T3, KRas WT (Homo sapiens, UniProt P01116).
T3 construct: Biotinylated KRas (corresponding to amino acids 1-169, produced at Accelegan Inc.); biotin (biotinylated); purchased Accelegan Inc
T3 sequence (P01116 1-169 isoform P01116-2): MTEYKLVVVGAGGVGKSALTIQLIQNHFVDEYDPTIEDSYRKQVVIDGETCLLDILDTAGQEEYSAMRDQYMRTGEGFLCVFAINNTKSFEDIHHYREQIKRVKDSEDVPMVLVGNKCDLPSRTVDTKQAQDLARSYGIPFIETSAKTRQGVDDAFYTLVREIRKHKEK
The description is as above. The conditions noted are these: 60-minute incubation at room temperature, 1% DMSO, pH 7.5. Put shortly: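 Displacement measured on KRas residues 1-169 (biotinylated, terbium-streptavidin labelled); 1 h, RT; 1% DMSO final; HEPES pH 7.5 / MgCl2 / Tween-20 / DTT. IC50: 4-parameter fit.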

The target of assay [1] is T4, KRas-mediated phosphorylation of ERK in MKN1 cells (Homo sapiens, UniProt P01116).
T4 construct: pERK HTRF read-out
T4 sequence (P01116 1-188 isoform P01116-2): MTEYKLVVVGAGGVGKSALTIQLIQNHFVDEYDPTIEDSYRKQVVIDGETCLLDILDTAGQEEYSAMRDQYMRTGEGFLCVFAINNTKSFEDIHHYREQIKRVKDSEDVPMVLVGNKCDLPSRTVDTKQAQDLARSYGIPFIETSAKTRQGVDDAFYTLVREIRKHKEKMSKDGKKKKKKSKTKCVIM
Description: Inhibition of KRas-mediated phosphorylation of ERK (HTRF), MKN1 cells. The note with it: MKN1 cells (KRas WT); HTRF pERK; 3 h incubation. The class given is cell-based. As to the method: Inhibition of KRas Phosphorylation of ERK (HTRF) by Exemplary Compounds of Formula (Ia) or (Ib)
Cisbio HTRF Advanced pERK Assay Catalog #64AERPEH • Cells: MKN1, PSN1 • Procedure: • 1. Day 1: Seed 6,000 cells/well −25 μl/well in 384-well white solid bottom plate; RPM1_10% FBS. Incubate overnight at 37 °C/5% CO2. • 2.

Assay [2] deals with T5, KRas-mediated phosphorylation of ERK in A549 cells (Homo sapiens, UniProt P01116, G12S).
T5 construct: pERK HTRF read-out
T5 sequence (P01116 1-188 isoform P01116-2 G12S): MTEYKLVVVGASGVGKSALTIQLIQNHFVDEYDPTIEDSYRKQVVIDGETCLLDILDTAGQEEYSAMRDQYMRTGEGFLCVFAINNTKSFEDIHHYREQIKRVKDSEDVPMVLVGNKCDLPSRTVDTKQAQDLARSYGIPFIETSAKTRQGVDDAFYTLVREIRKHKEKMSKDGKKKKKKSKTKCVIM
Description: Inhibition of KRas-mediated phosphorylation of ERK (HTRF), A549 cells. The conditions noted are these: HTRF pERK, 3 h incubation. The class given is cell-based.

In assay [3] the target is T6, KRas-mediated phosphorylation of ERK in H358 cells (Homo sapiens, UniProt P01116, G12C).
T6 construct: pERK HTRF read-out
T6 sequence (P01116 1-188 isoform P01116-2 G12C): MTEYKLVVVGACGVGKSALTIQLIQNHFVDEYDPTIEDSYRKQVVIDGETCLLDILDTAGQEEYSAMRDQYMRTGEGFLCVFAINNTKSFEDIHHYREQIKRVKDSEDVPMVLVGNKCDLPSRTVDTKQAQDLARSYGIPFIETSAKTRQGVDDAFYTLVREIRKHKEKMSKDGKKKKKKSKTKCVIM
Description: Inhibition of KRas-mediated phosphorylation of ERK (HTRF), H358 cells. The conditions noted are these: HTRF pERK, 3 h incubation. The class given is cell-based.

T1 sequence (P01116 1-169 isoform P01116-2 G12C): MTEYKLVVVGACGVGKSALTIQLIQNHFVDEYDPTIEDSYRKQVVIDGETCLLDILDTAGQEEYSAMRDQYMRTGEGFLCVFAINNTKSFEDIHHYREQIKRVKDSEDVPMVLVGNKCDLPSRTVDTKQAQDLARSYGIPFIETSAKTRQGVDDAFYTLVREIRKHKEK

On to `CCc1c(F)ccc2cc(O)cc(-c3ncc4c(N5CCC(C(=O)N(C)C(=O)COC)CC5)nc(OC[C@@]56CCCN5C[C@H](F)C6)nc4c3F)c12` [Example 209, 1-(7-(8-ethyl-7-fluoro-3-hydroxynaphthalen-1-yl)-8-fluoro-2-(((2R,7aS)-2-fluorotetrahydro-1H-pyrrolizin-7a(5H)-yl)methoxy)pyrido[4,3-d]pyrimidin-4-yl)-N-(2-methoxyacetyl)-N-methylpiperidine-4-carboxamide], for which the IC50 stood at 168 nM at KRas G12C; 165 nM at KRas G12S; 496 nM at KRas WT; 1110 nM in assay [1]; 281 nM in assay [2]; 1460 nM in assay [3].

Consider `CCc1c(F)ccc2cc(O)cc(-c3ncc4c(N5CC6CC(C(=O)N(C)C(C)=O)CC6C5)nc(OC[C@@]56CCCN5C[C@H](F)C6)nc4c3F)c12` (stereo partly drawn) [Example 279, N-acetyl-2-(7-(8-ethyl-7-fluoro-3-hydroxynaphthalen-1-yl)-8-fluoro-2-(((2R,7aS)-2-fluorotetrahydro-1H-pyrrolizin-7a(5H)-yl)methoxy)pyrido[4,3-d]pyrimidin-4-yl)-N-methyloctahydrocyclopenta[c]pyrrole-5-carboxamide], for which the IC50 was determined as 334 nM on KRas G12C; 188 nM at KRas G12S; 332 nM on KRas WT; 1690 nM in assay [1]; 276 nM in assay [2]; 4900 nM in assay [3].

Take `Cc1ccn(C(=O)C2CC3CN(c4nc(OC[C@@]56CCCN5C[C@H](F)C6)nc5c(F)c(-c6ccc(F)c7sc(N)c(C#N)c67)c(Cl)cc45)CC32)n1` (stereo partly drawn) [Example 178, 2-amino-4-(6-chloro-8-fluoro-2-(((2R,7aS)-2-fluorotetrahydro-1H-pyrrolizin-7a(5H)-yl)methoxy)-4-(6-(3-methyl-1H-pyrazole-1-carbonyl)-3-azabicyclo[3.2.0]heptan-3-yl)quinazolin-7-yl)-7-fluorobenzo[b]thiophene-3-carbonitrile]: the IC50 on KRas G12C stood at 13 nM; on KRas G12S, 15 nM; at KRas WT, 44 nM; in assay [1] it was 356 nM; in assay [2], 108 nM; in assay [3] it was 226 nM.

On to `CCc1c(F)ccc2cc(O)cc(-c3ncc4c(N5CCC(C(=O)n6nc(C)c(C)c6C)CC5)nc(OC[C@@]56CCCN5C[C@H](F)C6)nc4c3F)c12` [Example 73, (1-(7-(8-ethyl-7-fluoro-3-hydroxynaphthalen-1-yl)-8-fluoro-2-(((2R,7aS)-2-fluorotetrahydro-1H-pyrrolizin-7a(5H)-yl)methoxy)pyrido[4,3-d]pyrimidin-4-yl)piperidin-4-yl)(3,4,5-trimethyl-1H-pyrazol-1-yl)methanone], for which the IC50 at KRas G12C was 888 nM; on KRas G12S, 2960 nM; at KRas WT it was 1080 nM; in assay [1] it was 5570 nM; in assay [2] it was 8480 nM; in assay [3], 4500 nM.

With `Cc1ccn(C(=O)CCCNc2nc(OC[C@@]34CCCN3C[C@H](F)C4)nc3c(F)c(-c4ccc(F)c5sc(N)c(C#N)c45)c(Cl)cc23)n1` [Example 142, 2-amino-4-(6-chloro-8-fluoro-2-(((2R,7aS)-2-fluorotetrahydro-1H-pyrrolizin-7a(5H)-yl)methoxy)-4-((4-(3-methyl-1H-pyrazol-1-yl)-4-oxobutyl)amino)quinazolin-7-yl)-7-fluorobenzo[b]thiophene-3-carbonitrile], the IC50 at KRas G12C is < 2 nM; on KRas G12S, < 2 nM; on KRas WT it was 10 nM; in assay [1] it was 531 nM; in assay [2], 7 nM; in assay [3] it was 8 nM.

For the compound `CCc1c(F)ccc2cc(O)cc(-c3ncc4c(N5CCN(C(=O)n6ccc(C)n6)C(CF)C5)nc(OC[C@@]56CCCN5C[C@H](F)C6)nc4c3F)c12` (stereo partly drawn) [Example 123, (4-(7-(8-ethyl-7-fluoro-3-hydroxynaphthalen-1-yl)-8-fluoro-2-(((2R,7aS)-2-fluorotetrahydro-1H-pyrrolizin-7a(5H)-yl)methoxy)pyrido[4,3-d]pyrimidin-4-yl)-2-(fluoromethyl)piperazin-1-yl)(3-methyl-1H-pyrazol-1-yl)methanone], the IC50 at KRas G12C is 42 nM; on KRas G12S it was 68 nM; at KRas WT, 30 nM; in assay [1], 219 nM; in assay [2], 2740 nM; in assay [3], 264 nM.

Turning to `N#Cc1c(N)sc2c(F)ccc(-c3c(Cl)cc4c(N5CCCC(C(=O)n6cccn6)CC5)nc(OC[C@@]56CCCN5C[C@H](F)C6)nc4c3F)c12` (stereo partly drawn) [Example 131, 4-(4-(4-(1H-pyrazole-1-carbonyl)azepan-1-yl)-6-chloro-8-fluoro-2-(((2R,7aS)-2-fluorotetrahydro-1H-pyrrolizin-7a(5H)-yl)methoxy)quinazolin-7-yl)-2-amino-7-fluorobenzo[b]thiophene-3-carbonitrile], the IC50 at KRas G12C came to 7 nM; on KRas G12S, 6 nM; at KRas WT, 7 nM; in assay [1], 258 nM; in assay [2], 5 nM; in assay [3] it was 9 nM.

Take `COc1cccc(OC(=O)C2CCN(c3nc(OC[C@@]45CCCN4C[C@H](F)C5)nc4c(F)c(-c5ccc(F)c6sc(N)c(C#N)c56)c(Cl)cc34)CC2)c1` [Example 244, 3-methoxyphenyl 1-(7-(2-amino-3-cyano-7-fluorobenzo[b]thiophen-4-yl)-6-chloro-8-fluoro-2-(((2R,7aS)-2-fluorotetrahydro-1H-pyrrolizin-7a(5H)-yl)methoxy)quinazolin-4-yl)piperidine-4-carboxylate]: the IC50 on KRas G12C was 9 nM; on KRas G12S, 23 nM; at KRas WT, 289 nM; in assay [1], 279 nM; in assay [2], 55 nM; in assay [3], 12 nM.

Consider `Cc1ccn(C(=O)CCN(C)c2cc(O[C@@H](C)[C@@H]3CCCN3C)nc(-c3noc([C@]4(C)CCCc5sc(N)c(C#N)c54)n3)n2)n1` [Example 320, (R)-2-amino-4-methyl-4-(3-(4-(methyl (3-(3-methyl-1H-pyrazol-1-yl)-3-oxopropyl)amino)-6-((S)-1-((S)-1-methylpyrrolidin-2-yl)ethoxy)pyrimidin-2-yl)-1,2,4-oxadiazol-5-yl)-4,5,6,7-tetrahydrobenzo[b]thiophene-3-carbonitrile], for which the IC50 is 131 nM at KRas G12C; 179 nM on KRas G12S; 264 nM at KRas WT; > 10000 nM in assay [1]; 621 nM in assay [2]; > 10000 nM in assay [3].

As for `CCc1c(F)ccc2cc(O)cc(-c3ncc4c(N5CC6CC(C(=O)N(C)C(C)=O)C6C5)nc(OC[C@@]56CCCN5C[C@H](F)C6)nc4c3F)c12` (stereo partly drawn) [Example 277, N-acetyl-3-(7-(8-ethyl-7-fluoro-3-hydroxynaphthalen-1-yl)-8-fluoro-2-(((2R,7aS)-2-fluorotetrahydro-1H-pyrrolizin-7a(5H)-yl)methoxy)pyrido[4,3-d]pyrimidin-4-yl)-N-methyl-3-azabicyclo[3.2.0]heptane-6-carboxamide], the IC50 at KRas G12C stood at 864 nM; on KRas G12S it was 539 nM; on KRas WT, 357 nM; in assay [1], 2360 nM; in assay [2] it was 549 nM; in assay [3] it was 6510 nM.

Consider `CN(CCCC(=O)Nc1ccccn1)c1nc(OC[C@@]23CCCN2C[C@H](F)C3)nc2c(F)c(-c3ccc(F)c4sc(N)c(C#N)c34)c(Cl)cc12` [Example 214, 4-((7-(2-amino-3-cyano-7-fluorobenzo[b]thiophen-4-yl)-6-chloro-8-fluoro-2-(((2R,7aS)-2-fluorotetrahydro-1H-pyrrolizin-7a(5H)-yl)methoxy)quinazolin-4-yl)(methyl)amino)-N-(pyridin-2-yl)butanamide], for which the IC50 turned out to be 8 nM on KRas G12C; 13 nM at KRas G12S; 14 nM on KRas WT; 120 nM in assay [1]; 661 nM in assay [2]; 93 nM in assay [3].

For the compound `Cn1ccc(COC(=O)C2CCN(c3nc(OC[C@@]45CCCN4C[C@H](F)C5)nc4c(F)c(-c5ccc(F)c6sc(N)c(C#N)c56)c(Cl)cc34)CC2)n1` [Example 245, (1-methyl-1H-pyrazol-3-yl)methyl 1-(7-(2-amino-3-cyano-7-fluorobenzo[b]thiophen-4-yl)-6-chloro-8-fluoro-2-(((2R,7aS)-2-fluorotetrahydro-1H-pyrrolizin-7a(5H)-yl)methoxy)quinazolin-4-yl)piperidine-4-carboxylate], the IC50 on KRas G12C came to 12 nM; at KRas G12S, 8 nM; at KRas WT it was 6 nM; in assay [1], 15 nM; in assay [2], 148 nM; in assay [3] it was 148 nM.

One may read the IC50 as the concentration needed to halve the response being measured. A lower IC50 goes with greater potency.
